Paper PMC3527451, “A Pilot Randomized, Placebo Controlled, Double Blind Phase I Trial of the Novel SIRT1 Activator SRT2104 in Elderly Volunteers” (PLoS ONE, 2012)

Test system: elderly male and female volunteers
Experiment: Safety and tolerability, treatment-emergent adverse events in elderly volunteers
Type: in vivo, human
Settings: for serum creatinine of one subject: 0.5 g/day cohort
Method: This was a phase I, single-center, double-blind, randomized, placebo-controlled, parallel-arm study to assess the safety, tolerability, pharmacokinetic and initial pharmacodynamic properties of SRT2104 (Sirtris Pharmaceuticals, Cambridge, MA, USA) administered for the first time to male and female elderly volunteers 60 to 80 years of age. Volunteers were enrolled between 01 Oct 2009 and 5 Feb 2010. Doses of 0.5 and 2.0 g or matching placebo were administered once daily for 28 consecutive days. The selection of the doses investigated in this study was based upon safety and pharmacokinetic data obtained from a previous clinical study involving SRT2104 [19]. Suitability of participants was defined on the basis of a medical history, physical examination, vital signs, electrocardiogram and laboratory measurements. Subjects were required to have normal fasting glucose levels (4.4 to 6.0 mmol/L) at screening and a body mass index of at least 18 kg/m^2 and no greater than 30 kg/m^2. […] Subjects were deemed ineligible if they participated in any clinical trial with an investigative medicinal product within the past three months prior to the first dose in the current study, had been exposed to more than three new chemical entities within 12 months of enrollment, or used other concomitant medications and herbal products in the previous 3 months that in the opinion of the investigator could interfere with the study procedures or compromise subject safety. Additional exclusions included: women of childbearing potential and non-sterile men, unless they agreed to use acceptable method of contraception; history of alcoholism or drug abuse (including a positive pre-study drug/alcohol test at screening); use of tobacco or nicotine products; history of complications when donating blood or known relative inaccessibility of veins for venipuncture; donation of blood within three months of enrolment; history of significant drug or other allergies. Participants were asked to maintain their usual level of physical activity for the duration of the study.
At every visit (including at screening and follow-up), blood and urine samples were collected for clinical laboratory assessments (general blood biochemistry, full blood count, coagulation parameters and urinalysis). On the same days, physical examination, vital signs (resting pulse rate, respiration rate, temperature, and blood pressure readings), pre- and post-dose 12-lead ECG and a review of adverse events (AE) and any medications received were also performed. Safety evaluations were based on the incidence, severity and type of AEs and clinically significant changes from baseline in physical examination findings, vital signs or clinical laboratory results.

[1] = 28 days continuous administration

Cc1nc(-c2cccnc2)sc1C(=O)Nc1ccccc1-c1cn2c(CN3CCOCC3)csc2n1 [SRT2104]
4: Nasopharyngitis, number of subjects (2.0 g/day (n = 9))
no serious adverse events: serious adverse events [1]
8: Number of subjects experiencing any adverse event (0.5 g/day (n = 8))
(63%): Headache, percent of subjects (0.5 g/day (n = 8))
(100%): Any adverse event, percent of subjects (0.5 g/day (n = 8)) | Any adverse event, percent of subjects (2.0 g/day (n = 9))
116 µmol/L: serum creatinine of one subject (end of study follow up visit)
(13%): Abdominal distension, percent of subjects (0.5 g/day (n = 8)) | Abdominal pain lower, percent of subjects (0.5 g/day (n = 8)) | Application site haematoma, percent of subjects (0.5 g/day (n = 8)) | Arthralgia, percent of subjects (0.5 g/day (n = 8)) | Back pain, percent of subjects (0.5 g/day (n = 8)) | Blood creatinine increased, percent of subjects (0.5 g/day (n = 8)) | Decreased Appetite, percent of subjects (0.5 g/day (n = 8)) | Diarrhoea, percent of subjects (0.5 g/day (n = 8)) | Erythema, percent of subjects (0.5 g/day (n = 8)) | Insomnia, percent of subjects (0.5 g/day (n = 8)) | Lethargy, percent of subjects (0.5 g/day (n = 8)) | Migraine, percent of subjects (0.5 g/day (n = 8)) | Nasopharyngitis, percent of subjects (0.5 g/day (n = 8)) | Nausea, percent of subjects (0.5 g/day (n = 8)) | Palpitations, percent of subjects (0.5 g/day (n = 8)) | Procedural pain, percent of subjects (0.5 g/day (n = 8)) | Rash, percent of subjects (0.5 g/day (n = 8)) | Sensation of heaviness, percent of subjects (0.5 g/day (n = 8)) | Sleep disorder, percent of subjects (0.5 g/day (n = 8)) | Urine output increased, percent of subjects (0.5 g/day (n = 8)) | Vomiting, percent of subjects (0.5 g/day (n = 8))
1: Abdominal distension, number of subjects (0.5 g/day (n = 8)) | Abdominal pain lower, number of subjects (0.5 g/day (n = 8)) | Application site haematoma, number of subjects (0.5 g/day (n = 8)) | Arthralgia, number of subjects (0.5 g/day (n = 8)) | Back pain, number of subjects (0.5 g/day (n = 8)) | Blood creatinine increased, number of subjects (0.5 g/day (n = 8)) | Decreased Appetite, number of subjects (0.5 g/day (n = 8)) | Diarrhoea, number of subjects (0.5 g/day (n = 8)) | Erythema, number of subjects (0.5 g/day (n = 8)) | Insomnia, number of subjects (0.5 g/day (n = 8)) | Lethargy, number of subjects (0.5 g/day (n = 8)) | Migraine, number of subjects (0.5 g/day (n = 8)) | Nasopharyngitis, number of subjects (0.5 g/day (n = 8)) | Nausea, number of subjects (0.5 g/day (n = 8)) | Palpitations, number of subjects (0.5 g/day (n = 8)) | Procedural pain, number of subjects (0.5 g/day (n = 8)) | Rash, number of subjects (0.5 g/day (n = 8)) | Sensation of heaviness, number of subjects (0.5 g/day (n = 8)) | Sleep disorder, number of subjects (0.5 g/day (n = 8)) | Urine output increased, number of subjects (0.5 g/day (n = 8)) | Vomiting, number of subjects (0.5 g/day (n = 8)) | Application site haematoma, number of subjects (2.0 g/day (n = 9)) | Constipation, number of subjects (2.0 g/day (n = 9)) | Cough, number of subjects (2.0 g/day (n = 9)) | Dizziness, number of subjects (2.0 g/day (n = 9)) | Dysphonia, number of subjects (2.0 g/day (n = 9)) | Headache, number of subjects (2.0 g/day (n = 9)) | Limb injury, number of subjects (2.0 g/day (n = 9)) | Syncope vasovagal, number of subjects (2.0 g/day (n = 9)) | Thermal burn, number of subjects (2.0 g/day (n = 9))
2: Diarrhoea, number of subjects (2.0 g/day (n = 9))
5: Headache, number of subjects (0.5 g/day (n = 8))
126 µmol/L: serum creatinine of one subject (day 21 (normalization, drug restarted))
0: Constipation, number of subjects (0.5 g/day (n = 8)) | Cough, number of subjects (0.5 g/day (n = 8)) | Dizziness, number of subjects (0.5 g/day (n = 8)) | Dry eye, number of subjects (0.5 g/day (n = 8)) | Dysphonia, number of subjects (0.5 g/day (n = 8)) | Epistaxis, number of subjects (0.5 g/day (n = 8)) | Eye pain, number of subjects (0.5 g/day (n = 8)) | Fall, number of subjects (0.5 g/day (n = 8)) | Fatigue, number of subjects (0.5 g/day (n = 8)) | Joint stiffness, number of subjects (0.5 g/day (n = 8)) | Limb injury, number of subjects (0.5 g/day (n = 8)) | Mass, number of subjects (0.5 g/day (n = 8)) | Muscle spasms, number of subjects (0.5 g/day (n = 8)) | Muscular weakness, number of subjects (0.5 g/day (n = 8)) | Syncope vasovagal, number of subjects (0.5 g/day (n = 8)) | Tenderness, number of subjects (0.5 g/day (n = 8)) | Thermal burn, number of subjects (0.5 g/day (n = 8)) | Abdominal distension, number of subjects (2.0 g/day (n = 9)) | Abdominal pain lower, number of subjects (2.0 g/day (n = 9)) | Arthralgia, number of subjects (2.0 g/day (n = 9)) | Back pain, number of subjects (2.0 g/day (n = 9)) | Blood creatinine increased, number of subjects (2.0 g/day (n = 9)) | Decreased Appetite, number of subjects (2.0 g/day (n = 9)) | Dry eye, number of subjects (2.0 g/day (n = 9)) | Epistaxis, number of subjects (2.0 g/day (n = 9)) | Erythema, number of subjects (2.0 g/day (n = 9)) | Eye pain, number of subjects (2.0 g/day (n = 9)) | Fall, number of subjects (2.0 g/day (n = 9)) | Fatigue, number of subjects (2.0 g/day (n = 9)) | Insomnia, number of subjects (2.0 g/day (n = 9)) | Joint stiffness, number of subjects (2.0 g/day (n = 9)) | Lethargy, number of subjects (2.0 g/day (n = 9)) | Mass, number of subjects (2.0 g/day (n = 9)) | Migraine, number of subjects (2.0 g/day (n = 9)) | Muscle spasms, number of subjects (2.0 g/day (n = 9)) | Muscular weakness, number of subjects (2.0 g/day (n = 9)) | Nausea, number of subjects (2.0 g/day (n = 9)) | Palpitations, number of subjects (2.0 g/day (n = 9)) | Procedural pain, number of subjects (2.0 g/day (n = 9)) | Rash, number of subjects (2.0 g/day (n = 9)) | Sensation of heaviness, number of subjects (2.0 g/day (n = 9)) | Sleep disorder, number of subjects (2.0 g/day (n = 9)) | Tenderness, number of subjects (2.0 g/day (n = 9)) | Urine output increased, number of subjects (2.0 g/day (n = 9)) | Vomiting, number of subjects (2.0 g/day (n = 9))
154 µmol/L: serum creatinine of one subject (day 28 (relapse))
(22%): Diarrhoea, percent of subjects (2.0 g/day (n = 9))
(44%): Nasopharyngitis, percent of subjects (2.0 g/day (n = 9))
(11%): Application site haematoma, percent of subjects (2.0 g/day (n = 9)) | Constipation, percent of subjects (2.0 g/day (n = 9)) | Cough, percent of subjects (2.0 g/day (n = 9)) | Dizziness, percent of subjects (2.0 g/day (n = 9)) | Dysphonia, percent of subjects (2.0 g/day (n = 9)) | Headache, percent of subjects (2.0 g/day (n = 9)) | Limb injury, percent of subjects (2.0 g/day (n = 9)) | Syncope vasovagal, percent of subjects (2.0 g/day (n = 9)) | Thermal burn, percent of subjects (2.0 g/day (n = 9))
9: Number of subjects experiencing any adverse event (2.0 g/day (n = 9))
151 µmol/L: serum creatinine of one subject (day 14 (drug stopped))
no dose-limiting toxicities: dose-limiting toxicities [1]
generally safe and well tolerated: safety and tolerability (0.5 and 2.0 g/day for 28 days)
